Assay [1] concerns 3H 5-hydroxytryptamine uptake. The assay can be described thus: inhibition of 3H 5-hydroxytryptamine uptake, crude synaptosomes from rat frontal cortex (modified Wood and Willie). The assay is classed as biochemical. Particulars: nonspecific uptake in presence of 10 μM fluoxetine, read-out: Inhibition 5-HT Uptake IC50. The procedure: Inhibition of ^3 H 5-hydroxytryptamine uptake was established using a modification of the procedure of Wood and Willie, J. Neurochem. 37:795, 1981. Crude synaptosomes prepared from rat frontal cortex were utilized and nonspecific uptake was defined as that occurring in the presence of excess (10 μM) fluoxetine.

Assay [2] addresses T1, 5-HT1A serotonin receptor (Rattus norvegicus, UniProt P19327).
T1 construct: following the procedure of Hall et al., J. Neurochem; 44, 1685 (1985); from tissue
T1 sequence (P19327 1-422): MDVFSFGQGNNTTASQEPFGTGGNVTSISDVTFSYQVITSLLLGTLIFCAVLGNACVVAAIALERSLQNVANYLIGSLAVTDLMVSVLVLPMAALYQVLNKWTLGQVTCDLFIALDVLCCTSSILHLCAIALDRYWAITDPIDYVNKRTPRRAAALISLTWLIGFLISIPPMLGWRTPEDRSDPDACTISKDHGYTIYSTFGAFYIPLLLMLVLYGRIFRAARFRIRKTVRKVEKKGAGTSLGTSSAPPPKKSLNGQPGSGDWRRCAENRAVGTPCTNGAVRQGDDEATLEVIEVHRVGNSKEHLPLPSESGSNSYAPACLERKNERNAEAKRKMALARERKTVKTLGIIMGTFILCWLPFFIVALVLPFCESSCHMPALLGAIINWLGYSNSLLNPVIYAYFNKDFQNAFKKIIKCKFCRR
Conditions: reference agents; cited from earlier work.

For assay [3] the following is noted: cited from earlier work.
For assay [4], the target named is T1, 5-HT1A serotonin receptor. Nature of the assay: displacement of [3H] 8-OHDPAT (dipropylaminotetralin) from the 5-HT1A serotonin receptor (Hall et al.). The class given is binding. Particulars: read-out: 5-HT1A Receptor Affinity IC50. An excerpt: High affinity for the serotonin 5-HT1A receptor was established by testing the claimed compound's ability to displace [^3 H] 8-OHDPAT (dipropylaminotetralin) from the ^5 -HT1A serotonin receptor following the procedure of Hall et al., J. Neurochem. 44, 1685 (1985). […] The anxiolytic and antidepressant activity of these agents are believed to be, at least partially, due to their 5-HT1A receptor affinity (Vander Maclen et al., Eur. J. Pharmacol. 1986, 129 (1-2) […] and Lucki, J. Clin. Psychiat. 1992, 52, 24-31).

For another assay, the target named is T2, dopamine D2 receptor (Rattus norvegicus, UniProt P61169).
T2 construct: homogenized rat striatal brain tissue; from tissue; host or cells: rat striatum homogenate
The assay can be described thus: dopamine D2 receptor affinity, 3H-quinpirole, homogenized rat striatal brain tissue (modified Seemen and Schaus). The assay is classed as binding. The method, then:
Affinity for the dopamine D2 receptor was established by a modification of the standard experimental test procedure of Seemen and Schaus, European Journal of Pharmacology 203: 105-109, 1991, wherein homogenized rat striatal brain tissue is incubated with ^3 H-quinpirole and various concentrations of test compound, filtered and washed and counted in a Betaplate scintillation counter.

Another assay concerns 5-HT1A receptors. Particulars: European Journal of Pharmacology, 173 (1989), 189; cited from earlier work.

The text below walks through data of patent US5750724A, “Indolealkyl derivatives of benzodioxanmethylamine” (American Home Products Corporation, priority 1996, dated 1998).

What is called IC50 is the midpoint of a concentration-inhibition curve.

T2 sequence (P61169 whole entry): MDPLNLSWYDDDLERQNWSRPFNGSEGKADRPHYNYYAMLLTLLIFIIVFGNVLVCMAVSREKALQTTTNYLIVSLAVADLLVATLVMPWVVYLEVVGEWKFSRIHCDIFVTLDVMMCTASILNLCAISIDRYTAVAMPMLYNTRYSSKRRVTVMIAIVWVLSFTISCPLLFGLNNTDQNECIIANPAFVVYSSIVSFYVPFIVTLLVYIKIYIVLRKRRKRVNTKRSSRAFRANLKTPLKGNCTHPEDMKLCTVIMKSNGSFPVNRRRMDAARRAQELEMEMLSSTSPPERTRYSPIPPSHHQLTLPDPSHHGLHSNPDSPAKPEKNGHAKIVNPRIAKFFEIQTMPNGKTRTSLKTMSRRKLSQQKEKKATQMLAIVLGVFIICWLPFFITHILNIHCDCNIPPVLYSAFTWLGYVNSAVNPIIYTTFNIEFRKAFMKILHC

Consider `CN(C)C/C=C(/c1ccc(Br)cc1)c1cccnc1` [zimelidine, reference compound], for which the IC50 in assay [1] was determined as 240 nM.

For `CC1(C)CC(=O)N(CCCCN2CCN(c3ncccn3)CC2)C(=O)C1` [gepirone], the “affinity for the 5-HT1A serotonin receptor subtype (in words)” value (from here on “affinity”) in assay [2] is “potent affinity”. The “anxiolytic and antidepressant activity in clinical trials (in words)” value in assay [3] was “demonstrated both anxiolytic and antidepressant activity in clinical trials”.

Take `COc1ccc2[nH]cc(CCCNCC3COc4ccccc4O3)c2c1` (stereo not drawn) [Example 12, (2.3-Dihydro-benzo[1,4]dioxin-2-ylmethyl)-[3-(5-methoxy-1H-indol-3-yl)-propyl]-amine]: the concentration for half-maximal inhibition (IC50) was determined as 0.1 nM in assay [4], 1.55 nM against dopamine D2 receptor and 2380 nM in assay [1].

`CNCCC(Oc1ccc(C(F)(F)F)cc1)c1ccccc1` (stereo not drawn) [fluoxetine, reference compound]: the half-inhibitory concentration (IC50) in assay [1] is 71 nM.

In the case of `Fc1ccc2[nH]cc(CCCNCC3COc4ccccc4O3)c2c1` (stereo not drawn) [Example 13, (2,3-Dihydro-benzo[1,4]dioxin-2-ylmethyl)-[3-(5-fluoro-1H-indol-3-yl)-propyl]-amine], the IC50 was 0.12 nM in assay [4], 8.13 nM at dopamine D2 receptor and 154 nM in assay [1].

Take `CN(C)CCCN1c2ccccc2CCc2ccccc21` [imipramine, reference compound]: the IC50 in assay [1] came to 120 nM.

Take `COc1ccc2[nH]cc(CCNCC3COc4ccccc4O3)c2c1` (stereo not drawn): the “partial agonist activity at 5-HT1A receptors (in words)” value in the assay with 5-HT1A receptors is “partial agonist activity at 5-HT1A receptors”.

Take `O=C1CC2(CCCC2)CC(=O)N1CCCCN1CCN(c2ncccn2)CC1` [buspirone]: in assay [2], the “affinity” value is “potent affinity”.

For `CS(=O)(=O)Nc1ccc2c(c1)OC(CNCCCCc1c[nH]c3ccccc13)CO2` (stereo not drawn) [Example 11, N-(3-{[4-(1 H-Indol-3-yl)-butylamino]-methyl}-2,3-dihydro-benzo[1,4]dioxin-6-yl)-methanesulfonamide], the IC50 in assay [4] was 3.89 nM; on dopamine D2 receptor, 2.37 nM; in assay [1], 13.5 nM.

Regarding `O=C1c2ccccc2S(=O)(=O)N1CCCCN1CCN(c2ncccn2)CC1` [ipsapirone], the “affinity” value in assay [2] is reported as “potent affinity”. For the same compound, in assay [3], the “anxiolytic and antidepressant activity in clinical trials (in words)” value was “demonstrated both anxiolytic and antidepressant activity in clinical trials”.

For the compound `Oc1ccc2[nH]cc(CCCNCC3COc4ccccc4O3)c2c1` (stereo not drawn) [Example 5, 3-{3-[(2,3-Dihydro-benzo[1,4]dioxin-2-ylmethyl)-amino]-propyl}-1H-indol-5-o], the 50% inhibitory concentration (IC50) in assay [4] turned out to be 0.06 nM; against dopamine D2 receptor it was 6.5 nM; in assay [1], 52 nM.

With `COc1ccc2c(c1)OC(CNCCCCc1c[nH]c3ccc(OC)cc13)CO2` (stereo not drawn) [Example 9, (7-Methoxy-2,3-dihydro-benzo[1,4]dioxin-2-ylmethyl)-[4-(5-methoxy-1 H-indol-3-yl)-butyl]-amine], the IC50 in assay [4] was 0.8 nM; on dopamine D2 receptor, 64 nM; in assay [1], 738 nM.

Regarding `c1ccc2c(CCCCNC[C@H]3COc4cc5c(cc4O3)OCO5)c[nH]c2c1` [Example 1, [(6,7-Dihydro-1,3-dioxolo[4,5-g][1,4]benzodioxin-6-yl)methyl]-[4-(1H-indol-3-yl)-butyl]-amine], the IC50 in assay [4] turned out to be 5.6 nM; against dopamine D2 receptor, 116 nM.

For `Oc1ccc2c(c1)OC(CNCCCc1c[nH]c3ccc(O)cc13)CO2` (stereo not drawn) [Example 8, 3-{3-[(7-Hydroxy-2,3-dihydro-benzo[1,4]dioxin-2-ylmethyl)-amino]-propyl}-1H-indol-5-ol], the values for the IC50 (in assay [4]; at dopamine D2 receptor) were 0.35 nM and 0.61 nM, respectively.

As for `Cn1cc(CCCCNCC2COc3ccccc3O2)c2cc(F)ccc21` (stereo not drawn) [Example 22, (2,3-Dihydro-benzo[1,4]dioxin-2-ylmethyl)-{4-[5-fluoro-1-methyl-1H-(indole-3-yl)]-butyl}-amine], the IC50 is 16 nM in assay [4] and 49.8 nM against dopamine D2 receptor.

With `COc1ccc2[nH]cc(CCCCNCC3COc4ccccc4O3)c2c1` (stereo not drawn) [Example 23, (2,3-Dihydro-benzo[1,4]dioxin-2-ylmethyl)-[4-(5-methoxy-1H-indol-3-yl)-butyl]-amine], the IC50 was found to be 0.56 nM in assay [4] and 6.63 nM at dopamine D2 receptor.

With `Fc1ccc2[nH]cc(CCCCNCC3COc4ccccc4O3)c2c1` (stereo not drawn) [Example 18, (2,3-Dihydro-benzo[1,4]dioxin-2-ylmethyl)-[4-(5-fluoro-1H-indol-3-yl)-butyl]-amine], the IC50 turned out to be 3.95 nM in assay [4] and 18.4 nM against dopamine D2 receptor.

Regarding `Oc1ccc2c(c1)O[C@@H](CNCCCc1c[nH]c3ccccc13)CO2` [Example 20, 3-{[3-(1H-Indol-3-yl)-propylamino]methyl}-2,3-dihydro-benzo[1,4]dioxin-6-ol], the IC50 in assay [4] is 5.9 nM; at dopamine D2 receptor it was 0.13 nM.
